Read-outs that look alike come from different tables or passages of the source.
Target: T1, F508delCFTR (Homo sapiens, UniProt P13569, DEL508-508)
T1 construct: expressed in transfected cells; host or cells: CFBE41o- human lung-derived epithelial cells (CFBE4lo-F508delCFTR-HRP), doxycycline-inducible
Assay: Cell Surface Expression-Horse Radish Peroxidase (CSE-HRP) Assay;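 for Maximum % activity (with co-corrector): co-corrector and positive control are both the same reference corrector at 2 µM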;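 for Maximum % activity (without co-corrector): percent of the 2 µM on-plate positive control corrector response above DMSO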
Type: cell-based
Settings: CSE-HRP; for Maximum % activity (with co-corrector): with co-corrector (2 μM); for Maximum % activity (with co-corrector) / Emax: maximum at any tested concentration, normalized to on-plate positive control; for Emax: without co-corrector, read-out: Maximum % activity (without co-corrector)

[1] = test compound without co-corrector, read-out: EC50 (without co-corrector)
[2] = with co-corrector (2 μM of 3-[(2R,4R)-4-({[1-(2,2-difluoro-1,3-benzodioxol-5-yl)cyclopropyl]carbonyl}amino)-7-methoxy-3,4-dihydro-2H-chromen-2-yl]benzoic acid), read-out: EC50 (with co-corrector)

T1 sequence (P13569 with tags, fused parts or gaps DEL508-508): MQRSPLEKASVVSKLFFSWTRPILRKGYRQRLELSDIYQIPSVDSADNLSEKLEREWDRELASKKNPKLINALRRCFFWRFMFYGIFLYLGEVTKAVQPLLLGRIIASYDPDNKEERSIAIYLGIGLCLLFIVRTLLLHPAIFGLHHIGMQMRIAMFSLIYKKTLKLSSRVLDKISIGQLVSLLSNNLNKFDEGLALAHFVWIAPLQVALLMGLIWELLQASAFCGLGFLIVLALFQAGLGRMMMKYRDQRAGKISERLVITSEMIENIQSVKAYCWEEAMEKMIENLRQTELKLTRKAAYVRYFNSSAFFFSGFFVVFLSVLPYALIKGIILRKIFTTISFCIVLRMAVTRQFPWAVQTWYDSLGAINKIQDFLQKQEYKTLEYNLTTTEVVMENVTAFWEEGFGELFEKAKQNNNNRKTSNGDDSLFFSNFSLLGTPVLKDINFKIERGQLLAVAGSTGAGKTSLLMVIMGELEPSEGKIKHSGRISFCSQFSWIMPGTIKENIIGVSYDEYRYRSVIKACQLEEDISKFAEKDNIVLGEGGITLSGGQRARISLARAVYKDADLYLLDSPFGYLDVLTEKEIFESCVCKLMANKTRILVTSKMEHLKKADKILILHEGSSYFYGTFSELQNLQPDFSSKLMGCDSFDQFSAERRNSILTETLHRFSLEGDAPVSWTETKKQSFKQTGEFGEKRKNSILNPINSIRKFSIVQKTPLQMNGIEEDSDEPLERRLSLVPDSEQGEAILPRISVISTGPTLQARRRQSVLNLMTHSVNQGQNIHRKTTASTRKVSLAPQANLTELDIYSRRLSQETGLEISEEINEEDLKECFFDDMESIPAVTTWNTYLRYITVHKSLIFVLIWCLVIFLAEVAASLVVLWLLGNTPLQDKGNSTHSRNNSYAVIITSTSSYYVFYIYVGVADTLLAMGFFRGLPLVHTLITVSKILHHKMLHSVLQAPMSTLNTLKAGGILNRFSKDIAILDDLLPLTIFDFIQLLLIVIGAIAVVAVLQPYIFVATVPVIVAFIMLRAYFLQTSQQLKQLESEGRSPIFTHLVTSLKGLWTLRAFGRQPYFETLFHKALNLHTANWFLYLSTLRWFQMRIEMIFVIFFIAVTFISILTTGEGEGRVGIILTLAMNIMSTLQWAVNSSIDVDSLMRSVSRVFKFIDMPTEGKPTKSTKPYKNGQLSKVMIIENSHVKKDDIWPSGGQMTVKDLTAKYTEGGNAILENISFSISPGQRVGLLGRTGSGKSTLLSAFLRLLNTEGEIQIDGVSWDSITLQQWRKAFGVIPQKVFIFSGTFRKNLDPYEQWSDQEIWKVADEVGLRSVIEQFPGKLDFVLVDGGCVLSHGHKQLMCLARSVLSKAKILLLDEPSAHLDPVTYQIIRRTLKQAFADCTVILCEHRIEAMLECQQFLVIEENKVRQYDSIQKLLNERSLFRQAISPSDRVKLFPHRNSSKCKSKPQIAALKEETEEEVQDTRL

| Compound | EC50 [1] [µM] | EC50 [2] [µM] | Maximum % activity (with co-corrector) | Emax [%] |
| --- | --- | --- | --- | --- |
| CCOc1cc2c(cc1CN[C@H]1[C@H](C(C)(C)C)[C@@H](C(=O)O)N(C(=O)C3CCCCC3)[C@H]1c1ccccc1)CCC2 [II-129] | 1 to 10 | 1 to 10 | +++ (≥350) | 100 to 200 |
| CC(C)(C)[C@H]1[C@H](NCc2ccc(F)c(Oc3ccccc3)c2)[C@H](c2ccccc2)N(C(=O)C2CCCCC2)[C@@H]1C(=O)O [II-130] | 1 to 10 | 1 to 10 | ++ (≥150 and <350) | < 100 |
| Cc1ccc(CN[C@H]2[C@H](C(C)(C)C)[C@@H](C(=O)O)N(C(=O)C3CCCCC3)[C@H]2c2ccccc2)c(C)c1 [II-131] | 1 to 10 | 1 to 10 | ++ (≥150 and <350) | 100 to 200 |
| Cc1cc(C)cc(CN[C@H]2[C@H](C(C)(C)C)[C@@H](C(=O)O)N(C(=O)C3CCCCC3)[C@H]2c2ccccc2)c1 [II-132] | 1 to 10 | 1 to 10 | +++ (≥350) | < 100 |
| CC(C)(C)c1cc(CN[C@H]2[C@H](C(C)(C)C)[C@@H](C(=O)O)N(C(=O)C3CCCCC3)[C@H]2c2ccccc2)cc(C(C)(C)C)c1 [II-133] | 1 to 10 | 1 to 10 | ++ (≥150 and <350) | < 100 |
| COc1cc(C(F)(F)F)ccc1CN[C@H]1[C@H](C(C)(C)C)[C@@H](C(=O)O)N(C(=O)OC(C)C)[C@H]1c1ccccc1OC [II-134] | 1 to 10 | 1 to 10 | +++ (≥350) | > 200 |
| COc1cc(C(C)(C)C)ccc1CN[C@H]1[C@H](C(C)(C)C)[C@@H](C(=O)O)N(C(=O)OC(C)C)[C@H]1c1ccccc1OC [II-135] | 1 to 10 | 1 to 10 | +++ (≥350) | 100 to 200 |
| COc1ccc(C(F)(F)F)cc1CN[C@H]1[C@H](C(C)(C)C)[C@@H](C(=O)O)N(C(=O)OC(C)C)[C@H]1c1ccccc1OC [II-136] | 1 to 10 | 1 to 10 | +++ (≥350) | 100 to 200 |
| COc1ccc(Cl)cc1CN[C@H]1[C@H](C(C)(C)C)[C@@H](C(=O)O)N(C(=O)OC(C)C)[C@H]1c1ccccc1OC [II-137] | 1 to 10 | 1 to 10 | +++ (≥350) | 100 to 200 |
| COc1cc(C)ccc1CN[C@H]1[C@H](C(C)(C)C)[C@@H](C(=O)O)N(C(=O)C2CCCCC2)[C@H]1c1cccnc1OC [II-138] | 1 to 10 | 1 to 10 | +++ (≥350) | 100 to 200 |
| CC(C)(C)[C@H]1[C@H](NCc2cc(Cl)ccc2OCC2CC2)[C@H](c2ccccc2)N(C(=O)C2CCCCC2)[C@@H]1C(=O)O [II-139] | 1 to 10 | 1 to 10 | ++ (≥150 and <350) | < 100 |
| COc1ccc(C(C)(C)C)cc1CN[C@H]1[C@H](C(C)(C)C)[C@@H](C(=O)O)N(C(=O)C2CCCCC2)[C@H]1c1ccccc1OC [II-140] | 1 to 10 | < 1 | +++ (≥350) | 100 to 200 |
| COc1cc(C(C)(C)C)ccc1CN[C@H]1[C@H](C(C)(C)C)[C@@H](C(=O)O)N(C(=O)C2CCCCC2)[C@H]1c1ccccc1OC [II-141] | 1 to 10 | < 1 | +++ (≥350) | 100 to 200 |
| Cc1c(N[C@H]2[C@H](C(C)(C)C)[C@@H](C(=O)O)N(C(=O)C3CCCCC3)[C@H]2c2ccccc2)c(Cl)nc2ccc(F)cc12 [II-144] | 1 to 10 | 1 to 10 | +++ (≥350) | 100 to 200 |
| CC(C)(C)[C@H]1[C@H](Nc2cc(C#N)cnc2Cl)[C@H](c2ccccc2)N(C(=O)C2CCCCC2)[C@@H]1C(=O)O [II-145] | 1 to 10 | 1 to 10 | +++ (≥350) | 100 to 200 |
| Cc1ccc(C#N)c(N[C@H]2[C@H](C(C)(C)C)[C@@H](C(=O)O)N(C(=O)C3CCCCC3)[C@H]2c2ccccc2)n1 [II-146] | 1 to 10 | 1 to 10 | +++ (≥350) | < 100 |
| COCc1cc(C)nc(N[C@H]2[C@H](C(C)(C)C)[C@@H](C(=O)O)N(C(=O)C3CCCCC3)[C@H]2c2ccccc2)c1C#N [II-147] | 1 to 10 | 1 to 10 | ++ (≥150 and <350) | < 100 |
| CC(C)(C)[C@H]1[C@H](Nc2cc(C(F)(F)F)cc(C(F)(F)F)c2)[C@H](c2ccccc2)N(C(=O)C2CCCCC2)[C@@H]1C(=O)O [II-148] | < 1 | < 1 | +++ (≥350) | 100 to 200 |
| COc1cc(C(F)(F)F)ccc1CN[C@H]1[C@H](C(C)(C)OC)[C@@H](C(=O)O)N(C(=O)C2CCCCC2)[C@H]1c1ccccc1 [II-150] | 1 to 10 | < 1 | +++ (≥350) | > 200 |
| COc1cc(C(F)(F)F)ccc1CN[C@H]1[C@H](C(C)(C)C)[C@@H](C(=O)O)N(C(=O)c2ccccc2)[C@H]1c1ccccc1 [II-152] | 1 to 10 | 1 to 10 | +++ (≥350) | < 100 |
| COc1ccc(C(C)(C)C)cc1CN[C@H]1[C@H](C(C)(C)C)[C@@H](C(=O)O)N(C(=O)C2CCCCS2(=O)=O)[C@H]1c1ccccc1 (stereo partly drawn) [II-153] | 1 to 10 | 1 to 10 | +++ (≥350) | > 200 |
| COc1ccc(C(C)(C)C)cc1CN[C@H]1[C@H](C(C)(C)C)[C@@H](C(=O)O)N(S(=O)(=O)c2ccn(C)n2)[C@H]1c1ccccc1 [II-154] | 1 to 10 | 1 to 10 | +++ (≥350) | 100 to 200 |
| COc1ccc(C(F)(F)F)cc1CN[C@H]1[C@H](C(C)(C)C)[C@@H](C(=O)O)N(S(=O)(=O)c2ccccc2)[C@H]1c1ccccc1 [II-155] | 1 to 10 | 1 to 10 | ++ (≥150 and <350) | < 100 |
| COc1ccc(C(F)(F)F)cc1CN[C@H]1[C@H](C(C)(C)C)[C@@H](C(=O)O)N(C(=O)C2COc3ccccc3O2)[C@H]1c1ccccc1 (stereo partly drawn) [II-156] | 1 to 10 | 1 to 10 | ++ (≥150 and <350) | < 100 |
| COc1ncc(C(C)C)cc1CN[C@H]1[C@H](C(C)(C)C)[C@@H](C(=O)O)N(C(=O)C2CCCCC2)[C@H]1c1ccccc1 [II-157] | 1 to 10 | < 1 | +++ (≥350) | > 200 |
| COc1ncc(Br)cc1CN[C@H]1[C@H](C(C)(C)C)[C@@H](C(=O)O)N(C(=O)C2CCCCC2)[C@H]1c1ccccc1 [II-158] | < 1 | < 1 | +++ (≥350) | 100 to 200 |
| COC(=O)[C@H](C)Cc1cnc(OC)c(CN[C@H]2[C@H](C(C)(C)C)[C@@H](C(=O)O)N(C(=O)C3CCCCC3)[C@H]2c2ccccc2)c1 [II-159] | 1 to 10 | 1 to 10 | ++ (≥150 and <350) | < 100 |
